Laboratory results from patent US5658906A, “Cysteine protease and serine protease inhibitors” (Cephalon, Inc., priority 1996, dated 1997).

Tests used:
α-chymotrypsin = target: T1, α-chymotrypsin (Bos taurus, UniProt P00766); experiment: Inhibition of the serine protease α-chymotrypsin (Succ-Ala-Ala-Pro-Phe-AMC hydrolysis); assay type: biochemical; settings: pH 7.5, 0.03 mM substrate
T1 construct: purchased Sigma Chem. Co. C-3142
Description: Additionally,because α-chymotrypsin is not a calcium sensitive enzyme and is constituitively active, following addition of inhibitor stocks to the 96 well plates, 100 ul of a 2 fold concentrated stock of enzyme in dilution buffer was first added and the reaction started by addition of 100 ul of a 2 fold concentrated stock of substrate in assay buffer. Substrate hydrolysis was monitored every 5 minutes up to 30 minutes using a Fluoroskan II ([…]).

[1] = test system: calpain I in Molt-4 cells (α-spectrin breakdown products); experiment: Inhibition of calpain activation in intact Molt-4 cells (calpain-generated spectrin breakdown products); assay type: cell-based; settings: Homo sapiens, calcium and ionophore (ionomycin), read-out: % Inhibition of BDPs (10 μM)
Calpain I = target: T2, Calpain I (Homo sapiens, UniProt P07384); experiment: Inhibition and rate of inactivation of calpain I (Succ-Leu-Tyr-MNA hydrolysis); assay type: biochemical; settings: mean of three or more independent analyses, corrected for substrate, k2 = kapp(1+[S]/Km), read-out: k2 (second order rate constant of inactivation), A = Calpain I
T2 construct: Calpain I was purified from human red blood cells; from tissue; host or cells: human red blood cells (packed, outdated)
T2 sequence (P07384 1-714): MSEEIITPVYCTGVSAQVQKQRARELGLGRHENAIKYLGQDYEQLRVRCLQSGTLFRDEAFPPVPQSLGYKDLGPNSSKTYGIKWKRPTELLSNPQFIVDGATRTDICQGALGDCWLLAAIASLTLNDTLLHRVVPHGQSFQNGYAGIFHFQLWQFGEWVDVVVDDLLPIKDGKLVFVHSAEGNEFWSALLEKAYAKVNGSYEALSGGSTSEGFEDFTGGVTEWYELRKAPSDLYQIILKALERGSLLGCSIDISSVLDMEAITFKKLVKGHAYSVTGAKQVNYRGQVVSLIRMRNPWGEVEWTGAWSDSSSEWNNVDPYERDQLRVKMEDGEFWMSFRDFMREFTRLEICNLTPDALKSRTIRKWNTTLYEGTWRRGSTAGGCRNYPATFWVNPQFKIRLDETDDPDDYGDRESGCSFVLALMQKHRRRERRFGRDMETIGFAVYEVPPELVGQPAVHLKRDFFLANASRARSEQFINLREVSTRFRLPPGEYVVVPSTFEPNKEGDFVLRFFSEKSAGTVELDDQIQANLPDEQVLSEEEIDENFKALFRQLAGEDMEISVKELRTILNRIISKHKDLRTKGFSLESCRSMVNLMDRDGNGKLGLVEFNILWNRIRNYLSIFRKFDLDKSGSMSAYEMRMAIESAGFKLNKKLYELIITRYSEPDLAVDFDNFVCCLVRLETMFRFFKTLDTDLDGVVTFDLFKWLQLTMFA
T2 sequence (P04632 1-268 partner): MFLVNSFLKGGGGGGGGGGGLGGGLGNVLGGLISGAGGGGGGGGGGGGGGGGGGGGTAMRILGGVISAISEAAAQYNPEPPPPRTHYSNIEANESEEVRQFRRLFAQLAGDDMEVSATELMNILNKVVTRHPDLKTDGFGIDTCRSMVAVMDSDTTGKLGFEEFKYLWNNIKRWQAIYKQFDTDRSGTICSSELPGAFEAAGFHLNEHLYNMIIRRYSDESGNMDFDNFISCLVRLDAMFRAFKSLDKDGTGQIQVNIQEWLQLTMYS
Description: To evaluate inhibitory activity of our compounds, stocks (40 times concentrated) of each compound to be tested were prepared in 100% anhydrous dimethyl sulfoxide (DMSO) and 5 μl of each inhibitor preparation was aliquoted into each of three wells of a 96 well plate. Calpain I was purified from human red blood cells using a modification of the method described by Lee, W. J. et al. (Biochem. Internatl. (1990)22(1): 163-171). Briefly, 3 units of packed outdated red blood cells were washed 3× by repeated centrifugation at 500 rpm for 10 minutes through 900 mls of 0.9% NaCl. Cells were lysed in 20 mM Tris/1 mM EDTA/1 mM EGTA/5 mM mercaptoethanol (Buffer A) and centrifuged for 1 hour at 12,000 rpm in a GSA rotor using a Sorval centrifuge. The supernatant was collected and applied to a DEAE-sepharose FF column equilibrated in Buffer A+25 mM NaCl. After washing the column in Buffer A+25 mM NaCl, the bound protein was eluted at 117 ml/hr with a 25 mM to 150 mM NaCl linear gradient in Buffer A collecting 200, 10 mL fractions. Two μl of every fifth fraction was applied to nitrocelluose using a dot blot apparatus and calpain containing fractions identified by Western analysis. For detection of calpain, nitrocellulose sheets were first blocked in 5% Blotto (5% Carnation instant milk/10 mM Tris/[…]150 mM NaCl) for 30 minutes, followed by incubation for 1 hour in antibody directed against Calpain I (rabbit anti-human calpain I polyclonal sera, 1:1000 dilution in 5% Blotto). After three 5 minutes washes in 10 mM Tris/150 mM NaCl/0.05% Tween 20 the nitrocellulose was incubated for 1 hour in secondary alkaline phosphatase conjugated antibody (Biorad Cat#170-6518 1:2000 in 5% Blotto). After three 5 minutes washes in 10 mM Tris/150 mM NaCl/0.05% Tween 20 and 1 wash in 10 mM Tris/150 mM NaCl the nitrocellulose was incubated for up to 2 hours in a colorimetric substrate solution (Biorad Alkaline Phosphatase Substrate conjugate kit, cat#170-6432). The reaction was stopped by washing in water. After fractions containing calpain, and those in between, were pooled, solid ammonium sulfate was added to achieve a 30% solution and the mixture stirred for 1 hour at 4° C. Following collection of the precipitate by centrifugation for 1 hour at 4° C. at 12K rpm in a GSA rotor, the supernatant was collected and brought to 45% in ammonium sulfate. After stirring for 1 hour at 4° C., centrifugation was repeated. The supernatant was discarded and the precipitate resuspended in approximately 7 mls and dialyzed overnight at 4° C. against Buffer A+50 mM NaCl. The sample was then applied to a S300 gel filtration column preequilibrated in Buffer A+50 mM NaCl, washed and eluted at a flow rate of 20 ml/hr, collecting 200, 4 ml fractions. The peak of calpain was determined by assaying aliquots of every fifth fraction for enzyme activity monitored by the hydrolysis of a fluorogenic dipeptide substrate as described below. The peak fractions were pooled and the enzyme preparation used to test compounds for inhibitory activity. As an alternate to enzyme isolated from tissue sources, recombinant human calpain I has also been used to monitor compounds for inhibitory activity.
The foregoing enzyme preparation was diluted into assay buffer (i.e., 50 mM Tris, 50 mM NaCl, 1 mM EDTA, 1 mM EGTA, and 5 mM β-mercaptoethanol, pH 7.5 including 0.2 mM Succ-Leu-Tyr-MNA) and 175 μl aliquoted into the same wells containing the independent inhibitor stocks as well as to positive control wells containing 5 μl DMSO, but no compound. To start the reaction, 20 μl of 50 mM CaCl2 in assay buffer was added to all wells of the plate, excepting three, which were used as background signal baseline controls. Substrate hydrolysis was monitored every 5 minutes for a total of 30 minutes using Flouroskan II (ex=340 nm; em=430 nm). Substrate hydrolysis in the absence of inhibitor was linear for up to 15 minutes. […]

CC(C)C[C@H](NC(=O)OCc1ccccc1)C(=O)N[C@@H](Cc1ccccc1)C(=O)COn1cnc2ccccc21 [Example 22, 1-[N-[N-Benzyloxycarbonyl-L-leucyl]-(3S)-4-phenyl-3-amino-2-oxybutyloxy]benzimidazole]
inhibition at 10 µM (α-chymotrypsin): 91% | inhibition at 10 µM [1]: 61% | kinact/KI (Calpain I): 4000 M⁻¹ s⁻¹
